Experiments:
human Nav1.7 = human Nav1.7 (Homo sapiens (Human), UniProt Q15858); assay: Human Nav1.7 inhibitory activity evaluation (automated patch clamp QPatch16X, HEK293A cells stably expressing human Nav1.7 and human Navβ1); format: cell-based; settings: human Nav1.7, automated patch clamp
How it was run: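 QPatch16X whole-cell recordings at room temperature from HEK293A cells stably expressing human Nav1.7 with Navβ1, CsF-based internal solution, pH 7.4 external, 0.1% DMSO. From −100 mV holding, protocol included a 15 s hold at a potential inactivating ~30-40% of channels; IC50 from inward current at the second −10 mV pulse.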

human Nav1.5 = human Nav1.5 (Homo sapiens (Human), UniProt Q14524); assay: Human Nav1.5 inhibitory activity evaluation (automated patch clamp QPatch16X, HEK293 cells stably expressing human Nav1.5); format: cell-based; settings: human Nav1.5, automated patch clamp
Chain of human Nav1.5 (Q14524 whole entry): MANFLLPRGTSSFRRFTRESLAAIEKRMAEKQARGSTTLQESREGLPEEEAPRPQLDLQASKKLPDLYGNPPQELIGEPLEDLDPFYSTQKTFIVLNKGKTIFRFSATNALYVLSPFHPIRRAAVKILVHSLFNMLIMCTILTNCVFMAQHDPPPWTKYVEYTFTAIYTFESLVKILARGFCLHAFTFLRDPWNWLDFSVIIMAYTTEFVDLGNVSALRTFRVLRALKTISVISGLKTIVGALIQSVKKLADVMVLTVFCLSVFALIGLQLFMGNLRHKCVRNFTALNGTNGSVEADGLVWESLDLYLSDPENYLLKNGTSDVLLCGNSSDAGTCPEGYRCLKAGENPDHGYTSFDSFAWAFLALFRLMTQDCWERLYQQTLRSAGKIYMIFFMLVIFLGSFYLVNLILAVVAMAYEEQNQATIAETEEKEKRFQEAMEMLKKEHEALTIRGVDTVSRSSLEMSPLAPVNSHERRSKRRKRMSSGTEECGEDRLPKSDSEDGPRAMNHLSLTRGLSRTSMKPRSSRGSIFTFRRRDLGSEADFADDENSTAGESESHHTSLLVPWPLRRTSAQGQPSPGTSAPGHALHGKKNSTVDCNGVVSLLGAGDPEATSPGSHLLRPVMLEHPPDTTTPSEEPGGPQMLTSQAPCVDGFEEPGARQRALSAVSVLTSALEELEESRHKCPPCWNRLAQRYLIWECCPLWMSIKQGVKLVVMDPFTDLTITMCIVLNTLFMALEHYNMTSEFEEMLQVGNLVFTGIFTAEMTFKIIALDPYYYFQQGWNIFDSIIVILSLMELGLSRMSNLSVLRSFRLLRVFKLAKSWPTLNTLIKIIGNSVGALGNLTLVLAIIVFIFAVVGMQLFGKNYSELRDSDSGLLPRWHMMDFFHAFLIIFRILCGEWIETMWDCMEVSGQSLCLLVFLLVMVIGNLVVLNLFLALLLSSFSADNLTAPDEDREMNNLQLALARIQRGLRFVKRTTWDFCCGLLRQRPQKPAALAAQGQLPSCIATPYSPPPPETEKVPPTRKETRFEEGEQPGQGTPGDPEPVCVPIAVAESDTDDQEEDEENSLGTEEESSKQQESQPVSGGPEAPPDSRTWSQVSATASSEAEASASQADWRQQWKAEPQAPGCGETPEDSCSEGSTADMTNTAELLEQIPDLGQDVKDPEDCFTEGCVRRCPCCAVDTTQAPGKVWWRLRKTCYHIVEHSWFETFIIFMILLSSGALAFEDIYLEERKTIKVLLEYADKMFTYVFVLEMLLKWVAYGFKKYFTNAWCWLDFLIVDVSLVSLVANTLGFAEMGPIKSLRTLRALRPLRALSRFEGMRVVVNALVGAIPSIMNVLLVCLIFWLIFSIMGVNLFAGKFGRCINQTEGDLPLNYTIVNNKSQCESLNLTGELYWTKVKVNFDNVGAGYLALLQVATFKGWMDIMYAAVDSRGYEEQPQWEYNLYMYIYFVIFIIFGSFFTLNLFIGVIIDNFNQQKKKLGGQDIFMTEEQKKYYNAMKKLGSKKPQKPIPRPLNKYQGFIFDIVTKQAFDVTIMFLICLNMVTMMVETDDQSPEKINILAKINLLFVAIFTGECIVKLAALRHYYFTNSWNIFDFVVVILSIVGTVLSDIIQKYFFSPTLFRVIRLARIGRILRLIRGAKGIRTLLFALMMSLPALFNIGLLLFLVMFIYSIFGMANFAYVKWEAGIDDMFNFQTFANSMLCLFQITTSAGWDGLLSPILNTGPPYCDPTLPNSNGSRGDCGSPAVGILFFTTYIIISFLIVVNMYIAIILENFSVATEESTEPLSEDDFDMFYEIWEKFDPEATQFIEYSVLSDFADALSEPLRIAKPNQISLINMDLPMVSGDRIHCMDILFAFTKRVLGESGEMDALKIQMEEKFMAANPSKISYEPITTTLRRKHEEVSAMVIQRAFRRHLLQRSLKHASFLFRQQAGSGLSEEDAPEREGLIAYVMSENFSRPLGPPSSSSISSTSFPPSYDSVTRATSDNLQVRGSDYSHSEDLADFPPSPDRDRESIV
How it was run: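 Whole-cell automated patch clamp at room temperature on HEK293 stably expressing human Nav1.5; holding −80 mV, 20 consecutive cardiomyocyte action-potential-like test pulses before and after compound (0.1% DMSO). Inhibition measured on inward current at 20th pulse; IC50 from concentration-response curve.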

Chain of human Nav1.7 (Q15858 whole entry): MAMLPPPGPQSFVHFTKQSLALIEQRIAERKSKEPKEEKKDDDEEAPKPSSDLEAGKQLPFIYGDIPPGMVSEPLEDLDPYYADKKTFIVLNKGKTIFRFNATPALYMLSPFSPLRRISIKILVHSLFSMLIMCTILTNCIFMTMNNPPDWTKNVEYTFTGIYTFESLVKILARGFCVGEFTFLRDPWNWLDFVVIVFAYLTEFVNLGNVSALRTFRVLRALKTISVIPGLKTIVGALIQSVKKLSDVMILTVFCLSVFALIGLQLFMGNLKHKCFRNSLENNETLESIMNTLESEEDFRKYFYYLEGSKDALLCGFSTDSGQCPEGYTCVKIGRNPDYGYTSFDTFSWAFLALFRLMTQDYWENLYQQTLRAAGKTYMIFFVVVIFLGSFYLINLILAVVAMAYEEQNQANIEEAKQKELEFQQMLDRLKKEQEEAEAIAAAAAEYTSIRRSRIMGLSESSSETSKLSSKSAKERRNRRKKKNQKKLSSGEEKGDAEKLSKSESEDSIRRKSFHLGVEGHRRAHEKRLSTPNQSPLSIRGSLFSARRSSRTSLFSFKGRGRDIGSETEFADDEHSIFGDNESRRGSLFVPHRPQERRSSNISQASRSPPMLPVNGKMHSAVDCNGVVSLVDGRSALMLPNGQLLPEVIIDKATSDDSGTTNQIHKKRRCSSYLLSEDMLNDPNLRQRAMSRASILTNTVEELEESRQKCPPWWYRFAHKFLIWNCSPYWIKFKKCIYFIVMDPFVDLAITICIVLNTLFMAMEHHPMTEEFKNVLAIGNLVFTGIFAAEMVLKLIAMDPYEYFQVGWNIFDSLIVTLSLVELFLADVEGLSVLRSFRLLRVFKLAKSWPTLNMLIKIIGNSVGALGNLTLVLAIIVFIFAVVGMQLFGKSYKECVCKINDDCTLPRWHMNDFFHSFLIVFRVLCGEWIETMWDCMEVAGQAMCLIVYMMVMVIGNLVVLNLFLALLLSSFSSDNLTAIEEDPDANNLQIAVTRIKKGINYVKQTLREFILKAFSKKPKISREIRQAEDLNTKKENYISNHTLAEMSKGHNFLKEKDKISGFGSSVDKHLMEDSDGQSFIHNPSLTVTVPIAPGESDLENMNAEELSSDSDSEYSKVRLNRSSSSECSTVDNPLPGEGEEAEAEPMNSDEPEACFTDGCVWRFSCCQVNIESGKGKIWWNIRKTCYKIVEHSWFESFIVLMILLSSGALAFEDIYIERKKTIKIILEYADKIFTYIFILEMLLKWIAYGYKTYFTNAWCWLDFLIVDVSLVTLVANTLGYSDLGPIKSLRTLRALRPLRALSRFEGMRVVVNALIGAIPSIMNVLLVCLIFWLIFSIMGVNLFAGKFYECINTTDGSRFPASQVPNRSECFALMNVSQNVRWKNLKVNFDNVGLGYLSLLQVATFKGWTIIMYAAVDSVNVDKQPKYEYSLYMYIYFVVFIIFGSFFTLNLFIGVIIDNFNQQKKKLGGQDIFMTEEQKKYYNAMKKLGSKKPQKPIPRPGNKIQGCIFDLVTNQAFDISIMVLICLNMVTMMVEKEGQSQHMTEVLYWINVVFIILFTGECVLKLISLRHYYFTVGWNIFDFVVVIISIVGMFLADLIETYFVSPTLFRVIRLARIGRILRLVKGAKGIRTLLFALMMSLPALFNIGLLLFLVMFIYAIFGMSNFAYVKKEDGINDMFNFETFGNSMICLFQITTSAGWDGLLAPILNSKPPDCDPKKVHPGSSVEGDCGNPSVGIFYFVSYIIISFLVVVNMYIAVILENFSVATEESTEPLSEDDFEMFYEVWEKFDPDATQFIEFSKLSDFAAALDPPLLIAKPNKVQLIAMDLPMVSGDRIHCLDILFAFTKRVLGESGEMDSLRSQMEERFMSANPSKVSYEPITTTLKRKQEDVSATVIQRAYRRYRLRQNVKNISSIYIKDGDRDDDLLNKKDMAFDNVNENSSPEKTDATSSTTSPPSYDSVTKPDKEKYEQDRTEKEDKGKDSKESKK
Chain of human Nav1.7 (Q07699 19-218 partner): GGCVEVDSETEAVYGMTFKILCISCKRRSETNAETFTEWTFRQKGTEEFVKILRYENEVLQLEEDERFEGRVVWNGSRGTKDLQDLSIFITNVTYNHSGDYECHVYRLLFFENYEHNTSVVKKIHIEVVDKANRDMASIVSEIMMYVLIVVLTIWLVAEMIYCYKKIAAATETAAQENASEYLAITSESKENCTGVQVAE

IC50 (human Nav1.7) [µM] | Compound | IC50 (human Nav1.5) [nM]
< 1 | N#Cc1ccc2c(c1)C[C@@H](NC(=O)c1cc3n(n1)CCN(Cc1ccc(F)cc1)C3)CO2 [Example 268, (R)—N-(6-cyanochroman-3-yl)-5-(4-fluorobenzyl)-4,5,6,7-tetrahydropyrazolo[1,5-a]pyrazine-2-carboxamide] | ≥ 3000
< 10 | CC(C)(C)OCCN1CCn2nc(C(=O)N[C@H]3COc4ccc(C(F)F)cc4C3)cc2C1 [Example 272] | ≥ 3000
< 1 | COc1cccc(CN2CCn3nc(C(=O)N[C@H]4COc5ccc(Cl)cc5C4)cc3C2)n1 [Example 273] | ≥ 3000
< 1 | O=C(N[C@H]1COc2ccccc2C1)c1nn2c(c1-c1ccccc1)CN(CC(F)(F)F)CC2 [Example 275] | 1000 to 3000
< 10 | O=C(N[C@H]1COc2ccccc2C1)c1cc2n(n1)CCN(C(=O)Cc1ccccc1)C2 [Example 276] | ≥ 3000
< 10 | O=C(N[C@H]1COc2ccccc2C1)c1cc2n(n1)CCN(S(=O)(=O)c1cccc(C(F)(F)F)c1)C2 [Example 277] | ≥ 3000
< 1 | N#Cc1ccc2c(c1)C[C@@H](NC(=O)c1cc3n(n1)CCN(c1ccc(F)cc1)C3)CO2 [Example 278] | 1000 to 3000
< 1 | O=C(N[C@H]1COc2ccc(-c3cccnc3)cc2C1)c1cc2n(n1)CCN(c1ccc(F)cc1)C2 [Example 279] | ≥ 3000
< 10 | N#Cc1ccc(N2CCn3nc(C(=O)N[C@H]4COc5ccc(Cl)cc5C4)cc3C2)nc1 [Example 280] | < 1000
< 10 | CC(C)(C)N1CCn2nc(C(=O)N[C@H]3COc4ccc(Cl)cc4C3)cc2C1 [Example 281] | ≥ 3000
< 1 | N#Cc1ccc2c(c1)C[C@@H](NC(=O)c1cc3n(n1)CCN(C1(c4ccc(F)cc4)CC1)C3)CO2 [Example 282] | 1000 to 3000
< 1 | O=C(N[C@H]1COc2ccc(Cl)cc2C1)c1cc2n(n1)CCN(C1(C(F)(F)F)CC1)C2 [Example 283] | < 1000
< 1 | CC(C)(c1ccccn1)N1CCn2nc(C(=O)N[C@H]3COc4ccc(Cl)cc4C3)cc2C1 [Example 285] | 1000 to 3000
< 10 | O=C(NC1COc2cccc(-c3ccccc3)c2C1)c1cn2c(n1)CCC(C(F)(F)F)C2 (centres unmarked) [Example 291] | ≥ 3000
< 1 | O=C(NC1COc2cccc(C(F)F)c2C1)c1cn2c(n1)CCC(C(F)(F)F)C2 (centres unmarked) [Example 292] | 1000 to 3000
< 10 | N#Cc1cccc2c1CC(NC(=O)c1cn3c(n1)CCC(C(F)(F)F)C3)CO2 (centres unmarked) [Example 294] | ≥ 3000
< 1 | CCc1ccc2c(c1)CC(NC(=O)c1cn3c(n1)CCC(C(F)(F)F)C3)CO2 (centres unmarked) [Example 295] | ≥ 3000
< 1 | O=C(c1cn2c(n1)CCC(C(F)(F)F)C2)N(Cc1ccccc1)C1COc2ccc(Br)cc2C1 (centres unmarked) [Example 298] | 1000 to 3000
< 1 | COc1cccc(-c2c(C(=O)N[C@H]3COc4ccccc4C3)nc3n2CCCC3)n1 [Example 303] | 1000 to 3000
< 1 | O=C(N[C@H]1COc2ccc(C(F)(F)F)cc2C1)c1nc2n(c1-c1ccccn1)CCCC2 [Example 305] | 1000 to 3000

IC50 (human Nav1.7) [µM] | Compound | IC50 (human Nav1.5) [nM]
< 10 | O=C(c1cn2c(n1)CCC(c1cccc(N3CCOCC3)n1)C2)N1CCC(c2ccccc2)C1 (centres unmarked) [Example 307] | 1000 to 3000
< 10 | CCNc1cccc(C2CCc3nc(C(=O)N4CCC(c5ccccc5)C4)cn3C2)n1 (centres unmarked) [Example 308] | 1000 to 3000
< 10 | C[C@@H]1CN(c2cccc(C3CCc4nc(C(=O)N5CCC(c6ccccc6)C5)cn4C3)n2)C[C@H](C)O1 (some centres unmarked) [Example 311] | ≥ 3000
< 10 | O=C(c1cn2c(n1)CCC(c1cccc(OC3COC3)n1)C2)N1CCC(c2ccccc2)C1 (centres unmarked) [Example 313] | ≥ 3000
< 10 | COc1ncc(C(F)(F)F)cc1C1CCc2nc(C(=O)N3CCC(c4ccccc4)C3)cn2C1 (centres unmarked) [Example 316] | 1000 to 3000
< 10 | COc1ccc(CCC2CCc3nc(C(=O)N4CCC(c5ccccc5)C4)cn3C2)cn1 (centres unmarked) [Example 317] | ≥ 3000
< 10 | O=C(c1cn2c(n1)CCC(C1CCC(F)(F)CC1)C2)N1CCC1Cc1ccccc1 (centres unmarked) [Example 318] | ≥ 3000
< 10 | O=C(N[C@H]1COc2ccccc2C1)c1cn2c(n1)CCC(OCCOC(F)(F)F)C2 (some centres unmarked) [Example 321] | ≥ 3000
< 10 | O=C(NCCc1cccc(C(F)(F)F)c1)c1cn2c(n1)CNC(c1cccc(C(F)(F)F)n1)C2 (centres unmarked) [Example 324] | ≥ 3000
< 1 | CN1Cc2nc(C(=O)NCCc3cccc(OCC(F)(F)F)c3)cn2CC1c1ccc(C(F)(F)F)cc1 (centres unmarked) [Example 325] | ≥ 3000
< 10 | CN1Cc2nc(C(=O)NCCc3cccc(C(F)(F)F)c3)cn2CC1c1cccnc1C(F)(F)F (centres unmarked) [Example 326] | ≥ 3000
< 10 | CN1Cc2nc(C(=O)NCCc3cccc(OCC4CCOCC4)c3)cn2CC1c1ccccc1 (centres unmarked) [Example 327] | ≥ 3000
< 10 | CC(C)(C)CCC1Cn2cc(C(=O)N[C@H]3COc4ccccc4C3)nc2CN1 (some centres unmarked) [Example 328] | 1000 to 3000
< 10 | CN1Cc2nc(C(=O)NCC(F)(F)c3cccc(C(F)(F)F)c3)cn2CC1c1ccccc1 (centres unmarked) [Example 331] | 1000 to 3000
< 10 | CN(CCc1cccc(C(F)(F)F)c1)C(=O)c1cn2c(n1)CN(C)C(c1ccccc1)C2 (centres unmarked) [Example 332] | ≥ 3000
< 10 | CN1Cc2nc(C(=O)NCC(F)c3cccc(C(F)(F)F)c3)cn2CC1c1cccc(C(F)(F)F)n1 (centres unmarked) [Example 333] | ≥ 3000
< 10 | CN1Cc2nc(C(=O)NC3COc4cccc(C(F)(F)F)c4C3)cn2CC1c1ccccc1 (centres unmarked) [Example 334] | 1000 to 3000
< 10 | O=C(c1cn2c(n1)CNC(c1cccc(OC(F)(F)F)c1)C2)N1CC[C@H](Oc2cccc(C(F)F)n2)C1 (some centres unmarked) [Example 336] | 1000 to 3000
< 10 | O=C(c1cn2c(n1)CNC(c1cccc(OC(F)(F)F)c1)C2)N1CCOC(c2cccc(C(F)(F)F)c2)C1 (centres unmarked) [Example 337] | ≥ 3000
< 10 | O=C(N[C@H]1COc2ccccc2C1)c1nc2n(c1-c1ccccc1)CCN(CC(F)(F)F)C2 [Example 338] | ≥ 3000

IC50 (human Nav1.7) [µM] | Compound | IC50 (human Nav1.5) [nM]
< 10 | O=C(N[C@H]1COc2ccccc2C1)c1cn2c(n1)COC(c1ccccc1)C2 (some centres unmarked) [Example 340] | ≥ 3000
< 1 | O=C(N[C@H]1COc2ccc(CC(F)(F)F)cc2C1)c1nc2n(c1-c1ccccn1)CCOC2 [Example 343] | 1000 to 3000
< 1 | Cn1ccc(-c2c(C(=O)N[C@H]3COc4ccc(C(F)(F)F)cc4C3)nc3n2CCOC3)n1 [Example 345] | 1000 to 3000
< 1 | O=C(N[C@H]1COc2ccccc2C1)c1cc2n(n1)CCC(c1ccccc1)O2 (some centres unmarked) [Example 349] | 1000 to 3000
< 10 | O=C(c1cc2n(n1)CCC(c1ccccc1)O2)N1CCC(c2cccc(C(F)(F)F)c2)C1 (centres unmarked) [Example 350] | ≥ 3000
< 1 | COc1cccc2c1CC(NC(=O)c1cc3n(n1)CCC(c1ccccc1)O3)CO2 (centres unmarked) [Example 351] | ≥ 3000
< 1 | O=C(NC1COc2ccc(F)cc2C1)c1cc2n(n1)CCC(c1ccccc1)O2 (centres unmarked) [Example 352] | ≥ 3000
< 10 | O=C(NC1COc2cccc(Br)c2C1)c1cc2n(n1)CCC(c1ccccc1)O2 (centres unmarked) [Example 353] | ≥ 3000
< 1 | O=C(NC1COc2cccc(F)c2C1)c1cc2n(n1)CCC(c1ccccc1)O2 (centres unmarked) [Example 356] | ≥ 3000
< 1 | O=C(N[C@H]1COc2ccc(-c3cncnc3)cc2C1)c1cc2n(n1)CCC(c1ccccc1F)O2 (some centres unmarked) [Example 357] | ≥ 3000
< 10 | O=C(N[C@H]1COc2ccc(Cl)cc2C1)c1cc2n(n1)CCC(c1cccnc1)O2 (some centres unmarked) [Example 358] | ≥ 3000
< 1 | N#Cc1ccc2c(c1)C[C@@H](NC(=O)c1cc3n(n1)CCC(c1ccccc1F)O3)CO2 (some centres unmarked) [Example 359] | ≥ 3000
< 1 | COCc1ccc2c(c1)C[C@@H](NC(=O)c1cc3n(n1)CCC(c1ccccc1F)O3)CO2 (some centres unmarked) [Example 361] | ≥ 3000
< 10 | O=C(N[C@H]1COc2ccc(Cl)cc2C1)c1cc2n(n1)CCC(c1ccnc(C(F)(F)F)c1)O2 (some centres unmarked) [Example 362] | ≥ 3000
< 1 | N#Cc1ccc2c(c1)C[C@@H](NC(=O)c1cc3n(n1)CCC(c1ccc(F)cc1)O3)CO2 (some centres unmarked) [Example 364] | 1000 to 3000
< 1 | N#Cc1ccc2c(c1)C[C@@H](NC(=O)c1cc3n(n1)CCC(c1c(F)cccc1F)O3)CO2 (some centres unmarked) [Example 366] | 1000 to 3000
< 10 | N#Cc1ccc2c(c1)C[C@@H](NC(=O)c1cc3n(n1)CCC(C(F)(F)F)O3)CO2 (some centres unmarked) [Example 373] | ≥ 3000
< 1 | N#Cc1ccc2c(c1)C[C@@H](NC(=O)c1cc3n(n1)CCC(C(F)(F)F)O3)CO2 (some centres unmarked) [Example 374] | ≥ 3000
< 1 | O=C(N[C@H]1COc2ccc(-c3cccnc3)cc2C1)c1cc2n(n1)CCC(C(F)(F)F)O2 (some centres unmarked) [Example 375] | ≥ 3000
< 10 | COc1ccc(-c2ccc3c(c2)C[C@@H](NC(=O)c2cc4n(n2)CCC(C(F)(F)F)O4)CO3)cn1 (some centres unmarked) [Example 378] | ≥ 3000

Compound | IC50 (human Nav1.7) [µM] | IC50 (human Nav1.5) [nM]
O=C(N[C@H]1COc2ccccc2C1)c1cc2n(n1)CCC(c1ccccc1)N2 (some centres unmarked) [Example 287] | < 10 | ≥ 3000
